The text below walks through data of patent publication US20260306631A1, “CHIMERIC RECEPTORS” (St. Jude Children's Research Hospital, Inc., priority 2023, published 2026).

In assay [1] the test system is Jun.EpoR (ZipEpoR: cJunzip.hEpoRmut, cJun SEQ ID NO: 9, hEpoRmut SEQ ID NO: 10). The experiment in a line: Frequency of pSTAT5+ cells after ruxolitinib treatment, T cells expressing Jun.EpoR ZipR. It is filed as cell-based. The conditions noted are these: role: inhibitor; STAT5 phosphorylation (pSTAT5+ cells), human T cells, 48-hour treatment. An excerpt:
(§1) FIGS. 2A-2F show Jun leucine zipper-based homodimers activating STAT5 resulting in improved T cell viability, and that they are inhibited by ruxolitinib. (FIGS. 2A and 2B) pSTAT5 geometric mean fluorescence intensity (FIG. 2A) or percent positive (FIG. 2B) in Jun ZipR+ cells (N=4 biological replicates, One-way ANOVA, ** p<0.01, *** p<0.001, **** p<0.0001). (FIGS. 2C-2E) Frequency of pSTAT5+ cells following 48-hour treatment with indicated concentrations of ruxolitinib in vitro (N=3 biological replicates). (FIG. 2F) Frequency of dead cells (Annexin V+ Dead+), apoptotic cells (Annexin V+ Dead-), necrotic cells (Annexin V− Dead+), and live cells (Annexin V− Dead-) after 7 days of cytokine starvation without or with treatment of 5 M ruxolitinib in vitro (N=2 biological replicates, two-way ANOVA, **** p<0.0001 on Live cell population)
(§2) As a potential safety switch for the constitutively active homodimeric ZipRs, T cells expressing Jun.EpoR ZipRs or the Jun. GHR ZipRs were treated with increasing concentrations of ruxolitinib, an FDA-approved JAK1/2 inhibitor. All ZipRs were inhibited by ruxolitinib (FIGS. 2C-2E) as judged by their ability to phosphorylate STAT5.
(§3) Generation of ZipR transduced T cells. […]

Assay [2] relates to Jun.EpoR.del1 (ZipEpoR.del1: cJunzip.hEpoRmut.del1, cJun SEQ ID NO: 9, hEpoRmut SEQ ID NO: 14; 1 amino acid TM domain deletion). The experiment in a line: Frequency of pSTAT5+ cells after ruxolitinib treatment, T cells expressing Jun.EpoR.del1 ZipR. The format is cell-based. The conditions noted are these: role: inhibitor; STAT5 phosphorylation (pSTAT5+ cells), human T cells, 48-hour treatment.
From the text: as §1
(§4) The following constructs were generated and tested: • i) Jun.IL-2Rβ chain constructs with 0 to 6 alanine insertions to interrogate all potential intracellular orientations; • ii) Jun.EpoR constructs with 0, 1, 3, or 5 amino acid TM domain deletions to interrogate receptors with 0, 100, 300, or 500 degrees of rotation; • iii) Jun. GHR; and • iv) Jun. 18B.MyD88 fused to EpoR or GHR (Jun.MyD88.EpoR or Jun.MyD88.GHR).
(§5) As a potential safety switch for the constitutively active homodimeric ZipRs, T cells expressing Jun.EpoR ZipRs or the Jun. […]

Assay [3] concerns Jun.EpoR.del3 (ZipEpoR.del3: cJunzip.hEpoRmut.del3, cJun SEQ ID NO: 9, hEpoRmut SEQ ID NO: 16; 3 amino acid TM domain deletion). Kind of assay: Frequency of pSTAT5+ cells after ruxolitinib treatment, T cells expressing Jun.EpoR.del3 ZipR. The format is cell-based. The following applies: role: inhibitor; STAT5 phosphorylation (pSTAT5+ cells), human T cells, 48-hour treatment.
From the text: as §1, §4, §5

Assay [4] concerns Jun.EpoR.del5 (ZipEpoR.del5: cJunzip.hEpoRmut.del5, cJun SEQ ID NO: 9, hEpoRmut SEQ ID NO: 18; 5 amino acid TM domain deletion). The experiment in a line: Frequency of pSTAT5+ cells after ruxolitinib treatment, T cells expressing Jun.EpoR.del5 ZipR. It is filed as cell-based. The following applies: role: inhibitor; STAT5 phosphorylation (pSTAT5+ cells), human T cells, 48-hour treatment.
From the text: as §1, §4, §5

The subject of assay [5] is Jun.GHR (ZipGHR: cJunzip.hGHR, cJun SEQ ID NO: 9, hGHR SEQ ID NO: 20). The experiment in a line: Frequency of pSTAT5+ cells after ruxolitinib treatment, T cells expressing Jun.GHR ZipR. It is filed as cell-based. The conditions noted are these: role: inhibitor; STAT5 phosphorylation (pSTAT5+ cells), human T cells, 48-hour treatment.
From the text: as §1, §2, §3

Assay [6] deals with Jun.EpoR ZipRs or the Jun.GHR ZipRs. The experiment in a line: Ability of ZipRs to phosphorylate STAT5 under ruxolitinib treatment, T cells expressing Jun.EpoR ZipRs or Jun.GHR ZipR. It is filed as cell-based, human. The following applies: role: inhibitor; increasing concentrations of ruxolitinib.
From the text: as §1, §2, §3

In assay [7] the test system is Jun.EpoR- or Jun.GHR ZipRs expressing human T cells. The experiment in a line: T cell survival after 7-day cytokine starvation with concurrent ruxolitinib treatment. It is filed as cell-based. The conditions noted are these: role: inhibitor, 7 days without cytokines, printed as 5 M in FIG. 2F legend.
From the text: as §1
In addition to activation of STAT5, the ability for Jun ZipRs to improve T cell function was determined. Jun.EpoR- or Jun.GHR ZipRs expressing human T cells were cultured without cytokines for 7 days in vitro before quantifying the frequency of live, dead, and dying cells. ZipR signaling allowed cells to survive 7-day cytokine starvation, which was abrogated by concurrent treatment with ruxolitinib (FIG. 2F). […]
Cytokine starvation. […] To quantify apoptosis, cells were labeled with annexin V (BD Biosciences) and eBioscience Fixable viability dye (Invitrogen).

One may read the EC50 as the concentration needed to bring the measured effect to its halfway point. Low values mean a more potent agent, high ones a less potent agent.

With `N#CC[C@H](C1CCCC1)n1cc(-c2ncnc3[nH]ccc23)cn1` [Ruxolitinib, ruxolitinib], the EC50 in assay [1] came out at 668 nM; in assay [2] it was 483 nM; in assay [3] it was 57.2 nM; in assay [4] it was 94.2 nM; in assay [5], 6.3 nM. Also, the “inhibition of ZipRs as judged by their ability to phosphorylate STAT5” value in assay [6] was “inhibited”. In addition, the “survival of 7-day cytokine starvation by ZipR signaling” value in assay [7] is given as “abrogated”.
